Laboratory results: BindingDB's records for doi:10.1021/jm00159a020 (1986)

Experiment: Potency against rat brain adenosine A1 receptor at 10 uM

% displacement at 10 µM: 10%
SMILES: CCCCN(C)C(=O)[C@H]1OC(n2cnc3c(NC(CC)CC)ncnc32)[C@H](O)[C@@H]1O (stereo partly specified)
